Measured values from US20180369230A1, “TARGETED SELECTION OF PATIENTS FOR TREATMENT WITH SPECIFIC CORTISTATIN DERIVATIVES” (President and Fellows of Harvard College, priority 2015, published 2018).

Key:
[1] = tested on: ruxolitnib persistence cells; test: Growth inhibition in ruxolitinib persistent cells; format: cell-based; conditions: FIG. 5 legend; read-out: G150 in ruxolitnib persistence cells
SET-2 cells = test: SET-2 differentiation assay; format: cell-based; conditions: 50 nM, 3 days, flow cytometry
Procedure: For the SET-2 differentiation assay, cells were plated (6-well) in triplicate at 150,000 cells per ml for 3-days with 50 nM CA, 50 ng ml^−1 PMA (positive control), or vehicle. Cell pellets were collected at 4° C., washed three times with cold PBS, and stained with anti-CD61-PE (ab91128) or anti-CD41-PerCP (ab134373) and analyzed by flow cytometry. For each experiment, n=3 biological replicates with two independent experiments and one shown (FIG. 3).

MOLM-14 cells = test: Screening drug resistant alleles; format: cell-based; conditions: WT and mutated CDK8 and CDK19
Procedure: All suspension cells were plated (96-well) in triplicate at 5,000-30,000 cells per well for testing (n=3). Viable cell number was estimated after 3, 7 and 10 days by counting viable cells from one vehicle well, generating a cell dilution series, transferring […] per well in duplicate to a 384-well plate, and performing a linear regression to CellTiter-Glo (Promega) response (SPECTRAmax M3, Molecular Devices). Cells from all wells were also fourfold diluted in media and transferred in duplicate for CellTiter-Glo measurement. On days 3 and 7, an equal volume for all wells was split-back with fresh media and compound, such that the resulting cell density for the vehicle well matched the initial seeding density. For days 7 and 10, estimated cell number represents the split-adjusted theoretical cell number. HCT116 were plated (96-well) in triplicate at 250 cells per well. Cells were incubated in the presence of vehicle, 1 μM paclitaxel, or compound. On day 7, CellTiter-Blue (Promega) response was measured and values were normalized to vehicle (100% growth) and paclitaxel (0% growth). For growth assays with inhibitors, n=3 for each concentration with two independent experiments. […]

RUNX1 target genes = test: Determination of gene expression levels; format: cell-based, human; conditions: SET-2, MOLM-14 and MV4;11
Procedure: Leukemia cells were plated (12-well) in triplicate at 500,000-800,000 cells per ml and incubated in the presence of vehicle (0.1% DMSO) or CA (25 nM 3 h for K562, MOLM-14 and MV4;11; 10 nM 24 h for MOLM-14; 25 nM 4 h for SET-2, n=3 for each cell line). Cells were then washed twice with cold PBS, and snap frozen. RNA was isolated (RNeasy Plus Microkit, Qiagen or TRIzol, Life Technologies), processed, and, for K562, MOLM-14 and MV4;11, hybridized to the Human U133 Plus 2.0 microarray (Affymetrix). Microarrays were processed with Bioconductor packages affyQCReport for quality control and affy for background correction, summarization, and normalization using rma. […] SET-2 and HCT 116 gene expression was measured by RNA-seq. […] Reads were aligned in two passes, first with rnaStar (v.2.3.0e) then with BWA (v.0.7.5a) for remaining unmapped reads, both using default parameters. Mapped reads were merged and counted using HTSeq (v.0.5.3p3) with -s yes -m intersection-strict. […] Samples were run in a single lane on an Illumina HiSEQ 2000 sequencer with a single read flow cell using 1×50-bp reads and a 6-cycle index read. Reads were mapped to the hg19 reference genome using Tophat2 v.2.0.6 with custom settings including the setting of -library-type fr- firstrand to appropriately account for the stranded nature of the protocol. […]

For Cortistatin A, the IC50 [1] was 2 to 10 nM, the “differentiation, megakaryocytic markers CD41 and CD61” value (SET-2 cells) was “induces differentiation” and the “growth of cells expressing CDK8 W105M or CDK19 W105M” value (MOLM-14 cells) was “confers Cortistatin A resistance”. The “expression of RUNX1 target genes including CEBPA, IRF8 and NFE2” value (RUNX1 target genes) was “upregulated”.
